Experimental data published in US7473688B2, “Indolobenzazepine HCV NS5B inhibitors” (Bristol-Myers Squibb Company, priority 2005, dated 2009).
Read-outs that look alike come from different tables or passages of the source.

Assays:
HCV NS5B = target: T1, HCV NS5B (Hepatitis C virus genotype 1b, UniProt Q9WMX2); test: HCV NS5B RdRp enzyme assay (preincubation protocol); type: biochemical
T1 construct: The protein was expressed with an 18 amino acid C-terminal truncation to enhance the solubility; made in house; host or cells: E. coli BL21 (DE3), pET21a
Method: HCV NS5B RdRp cloning, expression, and purification. The cDNA encoding the NS5B protein of HCV, genotype 1b, was cloned into the pET21a expression vector. The protein was expressed with an 18 amino acid C-terminal truncation to enhance the solubility. The E. coli competent cell line BL21 (DE3) was used for expression of the protein. Cultures were grown at 37° C. for ˜4 hours until the cultures reached an optical density of 2.0 at 600 nm. The cultures were cooled to 20° C. and induced with 1 mM IPTG. Fresh ampicillin was added to a final concentration of 50 μg/ml and the cells were grown overnight at 20° C.
Cell pellets (3L) were lysed for purification to yield 15-24 mgs of purified NS5B. The lysis buffer consisted of 20 mM Tris-HCl, pH 7.4, 500 mM NaCl, 0.5% triton X-100, 1 mM DTT, 1 mM EDTA, 20% glycerol, 0.5 mg/ml lysozyme, 10 mM MgCl2, 15 ug/ml deoxyribonuclease I, and Complete TM protease inhibitor tablets (Roche). After addition of the lysis buffer, frozen cell pellets were resuspended using a tissue homogenizer. To reduce the viscosity of the sample, aliquots of the lysate were sonicated on ice using a microtip attached to a Branson sonicator. The sonicated lysate was centrifuged at 100,000×g for 1 hr at 4° C. and filtered through a 0.2 μm filter unit (Corning).
The protein was purified using three sequential chromatography steps: Heparin sepharose CL-6B, polyU sepharose 4B, and Hitrap SP sepharose (Pharmacia). The chromatography buffers were identical to the lysis buffer but contained no lysozyme, deoxyribonuclease I, MgCl2 or protease inhibitor and the NaCl concentration of the buffer was adjusted according to the requirements for charging the protein onto the column. Each column was eluted with a NaCl gradient which varied in length from 5-50 column volumes depending on the column type. After the final chromatography step, the resulting purity of the enzyme is >90% based on SDS-PAGE analysis. The enzyme was aliquoted and stored at −80° C.
Standard HCV NS5B RdRp enzyme assay. HCV RdRp genotype 1b assays were run in a final volume of 60 μl in 96 well plates (Costar 3912). The assay buffer is composed of 20 mM Hepes, pH 7.5, 2.5 mM KCl, 2.5 mM MgCl2, 1 mM DTT, 1.6 U RNAse inhibitor (Promega N2515), 0.1 mg/ml BSA (Promega R3961), and 2% glycerol. All compounds were serially diluted (3-fold) in DMSO and diluted further in water such that the final concentration of DMSO in the assay was 2%. HCV RdRp genotype 1b enzyme was used at a final concentration of 28 nM. A polyA template was used at 6 nM, and a biotinylated oligo-dT12 primer was used at 180 nM final concentration. Template was obtained commercially (Amersham 27-4110). Biotinylated primer was prepared by Sigma Genosys. 3H-UTP was used at 0.6 μCi (0.29 μM total UTP). Reactions were initiated by the addition of enzyme, incubated at 30° C. for 60 min, and stopped by adding […] of 50 mM EDTA containing SPA beads (4 μg/μl, Amersham RPNQ 0007). Plates were read on a Packard Top Count NXT after >1 hr incubation at room temperature.
Modified HCV NS5B RdRp enzyme assay. A modified enzyme assay was performed essentially as described for the standard enzyme assay except for the following: The biotinylated oligo dT12 primer was precaptured on streptavidin-coated SPA beads by mixing primer and beads in assay buffer and incubating at room temperature for one hour. Unbound primer was removed after centrifugation. The primer-bound beads were resuspended in 20 mM Hepes buffer, pH 7.5 and used in the assay at final concentrations of […] primer and 0.67 μg/μl beads. Order of addition in the assay: Enzyme (14 nM) was added to diluted compound followed by the addition of a mixture of template (0.2 nM), 3H-UTP (0.6 μCi, 0.29 μM), and primer-bound beads, to initiate the reaction; concentrations given are final. Reactions were allowed to proceed for 4 hours at 30° C.
IC50 values for compounds were determined using seven different [I]. […]

HCV replicon = HCV replicon FRET assay; type: cell-based; conditions: Hepatitis C virus
From the text: FRET Assay Preparation. To perform the HCV FRET screening assay, 96-well cell culture plates were used. The FRET peptide (Anaspec, Inc.) (Taliani et al., Anal. Biochem. 1996, 240, 60-67) contains a fluorescence donor, EDANS, near one end of the peptide and an acceptor, DABCYL, near the other end. The fluorescence of the peptide is quenched by […] resonance energy transfer (RET) between the donor and the acceptor, but as the NS3 protease cleaves the peptide the products are released from RET quenching and the fluorescence of the donor becomes apparent. The assay reagent was made as follows: 5× cell Luciferase cell culture lysis reagent from Promega (#E153A) diluted to 1× with dH2O, NaCl added to 150 mM final, the FRET peptide diluted to 20 uM final from a 2 mM stock.
To prepare plates, HCV replicon cells, with or without a Renilla luciferase reporter gene, were trypsinized and placed into each well of a 96-well plate with titrated test compounds added in columns 3 through 12; columns 1 and 2 contained a control compound (HCV protease inhibitor), and the bottom row contained cells without compound. The plates were then placed in a CO2 incubator at 37° C.
Assays. Subsequent to addition of the test compounds described above (FRET Assay Preparation), at various times the plate was removed and Alamar blue solution (Trek Diagnostics, #00-100) was added per well as a measure of cellular toxicity. After reading in a Cytoflour 4000 instrument (PE Biosystems), plates were rinsed with PBS and then used for FRET assay by the addition of 30 ul of the FRET peptide assay reagent described above (FRET Assay Preparation) per well. The plate was then placed into the Cytoflour 4000 instrument which had been set to 340 excite/490 emission, automatic mode for 20 cycles and the plate read in a kinetic mode. Typically, the signal to noise using an endpoint analysis after the reads was at least three-fold. Alternatively, after Alamar blue reading, plates were rinsed with PBS, 50 ul of DMEM (high glucose) without phenol red was added and plates were then used for luciferase assay using the Promega Dual-Glo Luciferase Assay System.
Compound analysis was determined by quantification of the relative HCV replicon inhibition and the relative cytotoxicity values. To calculate cytoxicity values, the average Alamar Blue fluorescence signals from the control wells were set as 100% non-toxic. The individual signals in each of the compound test wells were then divided by the average control signal and multiplied by 100% to determine […]. To calculate the HCV replicon inhibition values, an average background value was obtained from the two wells containing the highest amount of HCV protease inhibitor at the end of the assay period. These numbers were similar to those obtained from naïve Huh-7 cells.
The background numbers were then subtracted from the average signal obtained from the control wells and this number was used as 100% activity. The individual signals in each of the compound test wells were then divided by the averaged control values after background subtraction and multiplied by 100% to determine percent activity. EC50 values for a protease inhibitor titration were calculated as the concentration which caused a 50% reduction in FRET or luciferase activity. The two numbers generated for the compound plate, percent cytoxicity and percent activity were used to determine compounds of interest for further analysis.

[1] = Table 1, FRET assay, read-out: EC50*

T1 sequence (Q9WMX2 2420-2992): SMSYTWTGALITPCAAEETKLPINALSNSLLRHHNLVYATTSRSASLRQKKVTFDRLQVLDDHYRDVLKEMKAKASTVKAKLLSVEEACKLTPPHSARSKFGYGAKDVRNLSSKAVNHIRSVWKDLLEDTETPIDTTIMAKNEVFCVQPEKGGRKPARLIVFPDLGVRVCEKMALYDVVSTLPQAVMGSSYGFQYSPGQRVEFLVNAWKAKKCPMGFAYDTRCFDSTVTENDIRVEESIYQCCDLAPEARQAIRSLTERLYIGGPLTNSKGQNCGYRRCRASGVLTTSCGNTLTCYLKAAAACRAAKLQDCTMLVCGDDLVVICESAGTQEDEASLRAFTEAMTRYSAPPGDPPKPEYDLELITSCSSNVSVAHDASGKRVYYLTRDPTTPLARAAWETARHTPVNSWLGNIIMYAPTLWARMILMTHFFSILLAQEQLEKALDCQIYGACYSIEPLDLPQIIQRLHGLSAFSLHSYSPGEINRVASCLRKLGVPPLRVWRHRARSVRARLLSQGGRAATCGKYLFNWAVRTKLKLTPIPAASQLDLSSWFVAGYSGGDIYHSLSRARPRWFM

SMILES | IC50 (HCV NS5B; Table 1, read-out: IC50*) [nM] | EC50 (HCV replicon; [1]) [nM] | also measured
O=C(O)C1=Cc2ccccc2-c2c(C3CCCCC3)c3ccc(C(=O)NS(=O)(=O)N4CCOCC4)cc3n2C1 | 10 to 1000 | > 10000 | 
COc1ccc(S(=O)(=O)NC(=O)c2ccc3c(C4CCCCC4)c4n(c3c2)CC(C(=O)N2CCOCC2)=Cc2ccccc2-4)cc1 | 10 to 1000 | 70 to 1000 | 
O=C(NS(=O)(=O)N1CCOCC1)c1ccc2c(C3CCCCC3)c3n(c2c1)CC(C(=O)N1CCN(C(=O)CO)CC1)=Cc1ccccc1-3 | 10 to 1000 | 70 to 1000 | 
COc1ccc2c(c1)C=C(C(=O)N1CCOCC1)Cn1c-2c(C2CCCCC2)c2ccc(C(=O)NS(=O)(=O)N3CCN(C)CC3)cc21 | 10 to 1000 | 70 to 1000 | 
C[C@@H]1CN(C(=O)C2=Cc3ccccc3-c3c(C4CCCCC4)c4ccc(C(=O)NS(=O)(=O)N5CCN(C)CC5)cc4n3C2)C[C@H](C)O1 | 10 to 1000 | 70 to 1000 | 
O=C(NCc1cnn[nH]1)c1ccc2c(C3CCCCC3)c3n(c2c1)CC(C(=O)N1CCOCC1)=Cc1ccccc1-3 | 10 to 1000 | 70 to 1000 | 
C[C@@H]1CN(C(=O)C2=Cc3ccccc3-c3c(C4CCCCC4)c4ccc(C(=O)NCCN5CCOCC5)cc4n3C2)C[C@H](C)O1 | 10 to 1000 | 1000 to 10000 | 
C[C@@H]1CN(C(=O)C2=Cc3ccccc3-c3c(C4CCCCC4)c4ccc(C(=O)NCCN(C)C)cc4n3C2)C[C@H](C)O1 | 10 to 1000 | 1000 to 10000 | 
Cn1ncc(CNC(=O)c2ccc3c(C4CCCCC4)c4n(c3c2)CC(C(=O)N2CCOCC2)=Cc2ccccc2-4)n1 | 10 to 1000 | 1000 to 10000 | 
O=C(O)c1ccc2c(C3CCCCC3)c3n(c2c1)CC(C(=O)Nn1cnnc1)Cc1ccccc1-3 (stereo not shown) | 10 to 1000 | > 10000 | 
COC(=O)c1ccc2c(C3CCCCC3)c3n(c2c1)CC(C(=O)N(C)CC1CCCN(C)C1)Cc1ccccc1-3 (stereo not shown) | 10 to 1000 | 70 to 1000 | 
CN1CCCC(CN(C)C(=O)C2Cc3ccccc3-c3c(C4CCCCC4)c4ccc(C(=O)O)cc4n3C2)C1 (stereo not shown) | 10 to 1000 | 70 to 1000 | 
CN1CCCC(CN(C)C(=O)C2Cc3ccccc3-c3c(C4CCCCC4)c4ccc(C(=O)NS(=O)(=O)N(C)C)cc4n3C2)C1 (stereo not shown) | 10 to 1000 | < 20 | 
COC(=O)c1ccc2c(C3CCCCC3)c3n(c2c1)CC(C(=O)N(C)CC1CCCN(C)C1)=Cc1ccccc1-3 (stereo not shown) | 10 to 1000 | 1000 to 10000 | 
CN1CCCC(CN(C)C(=O)C2=Cc3ccccc3-c3c(C4CCCCC4)c4ccc(C(=O)N(C)CC5CCCN(C)C5)cc4n3C2)C1 (stereo not shown) | 10 to 1000 | 1000 to 10000 | 
CN1CCCC(CN(C)C(=O)C2=Cc3ccccc3-c3c(C4CCCCC4)c4ccc(C(=O)O)cc4n3C2)C1 (stereo not shown) | 10 to 1000 | 70 to 1000 | 
COC(=O)c1ccc2c(C3CCCCC3)c3n(c2c1)CC(C(=O)Nc1nccs1)=Cc1ccccc1-3 |  | 1000 to 10000 | 

SMILES | IC50 (HCV NS5B; Table 1, read-out: IC50*) [nM] | EC50 (HCV replicon; [1]) [nM] | also measured
COC(=O)c1ccc2c(C3CCCCC3)c3n(c2c1)CC(C(=O)N1CCC(N2C(=O)Cc4ccccc42)CC1)=Cc1ccccc1-3 |  | 1000 to 10000 | 
COC(=O)c1ccc2c(C3CCCCC3)c3n(c2c1)CC(C(=O)N1CCC(NC(C)=O)CC1)=Cc1ccccc1-3 |  | 1000 to 10000 | 
O=C(O)c1ccc2c(C3CCCCC3)c3n(c2c1)CC(C(=O)N1CCC2(CC1)OCCO2)=Cc1ccccc1-3 |  |  | IC50 (HCV NS5B; IC50*, Table 1): 10 to 1000 nM; EC50 (HCV replicon): 70 to 1000 nM
CN(C)S(=O)(=O)NC(=O)c1ccc2c(C3CCCCC3)c3n(c2c1)CC(C(=O)N1CCC2(CC1)OCCO2)=Cc1ccccc1-3 |  |  | IC50 (HCV NS5B; IC50*, Table 1): 10 to 1000 nM; EC50 (HCV replicon): 70 to 1000 nM
COC(=O)c1ccc2c(C3CCCCC3)c3n(c2c1)CC(C(=O)N1CCC(N2CCOCC2)CC1)=Cc1ccc(Cl)cc1-3 |  | 1000 to 10000 | 
CN(C)S(=O)(=O)NC(=O)c1ccc2c(C3CCCCC3)c3n(c2c1)CC(C(=O)N1CCC(=O)CC1)=Cc1ccccc1-3 |  |  | IC50 (HCV NS5B; IC50*, Table 1): 10 to 1000 nM; EC50 (HCV replicon): 70 to 1000 nM
COC(=O)c1ccc2c(C3CCCCC3)c3n(c2c1)CC(C(=O)N1CC[C@@H](F)C1)=Cc1ccccc1-3 |  | > 370 | 
COC(=O)c1ccc2c(C3CCCCC3)c3n(c2c1)C/C(=N/O)Cc1ccccc1-3 |  | > 10000 | 
C[C@@H]1CN(CCNC(=O)C2=Cc3ccccc3-c3c(C4CCCCC4)c4ccc(C(=O)NS(=O)(=O)N(C)C)cc4n3C2)C[C@H](C)O1 [drawing 148] | 10 to 1000 |  | 
C[C@@H]1CN(C(=O)NC2Cc3ccccc3-c3c(C4CCCCC4)c4ccc(C(=O)O)cc4n3C2)C[C@H](C)O1 (stereo partly shown) [drawing 151] | 10 to 1000 |  | 
CN(C)S(=O)(=O)NC(=O)c1ccc2c(C3CCCCC3)c3n(c2c1)CC(NC(=O)N1CCOCC1)Cc1ccccc1-3 (stereo not shown) [drawing 153] | 10 to 1000 |  | 
CN(C)S(=O)(=O)NC(=O)c1ccc2c(C3CCCCC3)c3n(c2c1)CC(NC(=O)N1CCOCC1)Cc1ccccc1-3 (stereo not shown) [drawing 155] | 10 to 1000 |  | 
CC(=O)NN(C)C(=O)C1=Cc2ccccc2-c2c(C3CCCCC3)c3ccc(C(=O)O)cc3n2C1 [drawing 156] | 10 to 1000 |  | 
O=C(NCc1cnn[nH]1)c1ccc2c(C3CCCCC3)c3n(c2c1)CC(C(=O)N1CCC(N2CCOCC2)CC1)=Cc1ccccc1-3 [drawing 204] | 10 to 1000 |  | 
COc1ccc2c(c1)C[C@@H](C(=O)N1CCC[C@H](OC(C)=O)C1)Cn1c-2c(C2CCCCC2)c2ccc(C(=O)NS(=O)(=O)N(C)C)cc21 [drawing 320] |  |  | IC50 (HCV NS5B; Table 1a, read-out: IC50*): 10 to 1000 nM
COc1ccc2c(c1)C[C@@H](C(=O)N1CCC[C@H](OC(C)=O)C1)Cn1c-2c(C2CCCCC2)c2ccc(C(=O)NS(=O)(=O)N(C)C)cc21 [drawing 326] |  |  | IC50 (HCV NS5B; Table 1a, read-out: IC50*): 10 to 1000 nM
